Results published in patent publication US4001325A, “α-Chloroacetanilide selective herbicides” (Diamond Shamrock Corporation, priority 1973, dated 1977).

Legend:
[1] = tested on: broadleaf species: pigweed, velvetleaf, morningglory; experiment: Greenhouse preemergence herbicide test, broadleaves; assay type: in vivo; settings: two weeks after treatment, 20160 min
Experimental: (§1) To illustrate the preemergence herbicidal efficiency of the alkyl-substituted 2-chloro-N-propargylacetanilides of this invention, test formulations are prepared of each compound by mixing 20 ml of an acetone solution containing 0.125 g of chemical with 20 ml of water containing 0.01 g of Triton X-155 surfactant. The resultant formulations contain 3125 ppm of test compound, 50% by volume of acetone and 0.025% by weight of surfactant. Appropriate lower concentrations are obtained by diluting this formulation with surfactant-acetone solution so that the concentration of adjuvants is maintained at the original levels.
(§2) Seeds of three broadleaf and three grass species are planted in soil contained in 10 inch × 8 inch × 3 inch aluminum pans filled with 1.5 inches of composted soil. The broadleaf species are pigweed (Amaranthus retroflexus), velvetleaf (Abutilon theophrasti), and morningglory (Ipomea coccinea); the grasses are red millet (Panicum milliacem), green foxtail (Setaria viridis) and Japanese millet (Echinochloa frumentacea).
(§3) The seeded pans are sprayed so that the soil surface is uniformly covered with dilutions of the stock formulation providing dosage rates of the test compounds as shown in the following table.
(§4) Two weeks after treatment, percent control (plant kill) at each dosage rate is estimated with results as follows: […]

[2] = tested on: grass species: red millet, green foxtail, Japanese millet; experiment: Greenhouse preemergence herbicide test, grasses; assay type: in vivo, Panicum milliacem, Setaria viridis, Echinochloa frumentacea; settings: pre-emergence, 336 h, two weeks after treatment; for pest or weed control at 69.4927 g/ha: 0.062 lb/A; for pest or weed control at 140.106 g/ha: 0.125 lb/A; for pest or weed control at 280.212 g/ha: 0.25 lb/A; for pest or weed control at 560.425 g/ha: 0.5 lb/A; for pest or weed control at 1120.85 g/ha: 1.0 lb/A
Experimental: as §1, §2, §3, §4

Corn = experiment: Field preemergence test, phytotoxic effects on crop; assay type: in vivo, sweet corn
Text: (§5) Test plots of fertilized, light sandy soil containing 0.7% organic matter are sprayed uniformly with aqueous suspensions prepared from emulsifiable concentrates containing 12%, by weight, of the test chemicals diluted to provide dosage rates of the test compounds corresponding to 2.0, 1.0, 0.5, and 0.25 pound per acre (lb/A). The plots are then sown with seeds of the following crop plants: sweet corn, cotton (Coker 413) and soybeans, var. Davis. Seeds of the following weed plants are planted: redroot pigweed, prickly sida, common lambsquarter, goosegrass and giant foxtail.
(§6) Three to four weeks after planting, percent control (plant kill) of the test plants is estimated, from a rating of 0 which denotes no injury to the plant up to 100 which denotes complete destruction. The herbicidal action of the test compounds obtained on the weed species is as follows:
(§7) Phytotoxic effects observed on the crop species is estimated with results as follows: […]

Cotton = experiment: as above; assay type: in vivo, cotton (Coker 413)
Text: as §5, §6, §7

Fall Panicum = experiment: Example 17 selective herbicidal activity in corn crop, weed kill; assay type: in vivo; settings: Panicum dichotomiflorum, 3-4 weeks after planting; for mortality at 280.212 g/ha: 0.25 lb/A; for mortality at 560.425 g/ha: 0.5 lb/A; for mortality at 1120.85 g/ha: 1.0 lb/A; for mortality at 2241.7 g/ha: 2.0 lb/A
Text: (§8) This example illustrates the selective herbicidal activity of two of the presently preferred compounds of this invention against various weed species in a corn crop.
(§9) Plots of light sandy soil, cleared of all weeds, are uniformly treated with aqueous dispersions prepared from an emulsifiable concentrate containing 2- 4 pounds of active ingredient per gallon. Diluted aqueous dispersions are applied as surface treatments at 2.0, 1.0, 0.5, and 0.25 pound of active ingredient per acre (lb/A).
(§10) The treated test plots are sown to corn and with seeds of the following weed species:
(§11) Three to four weeks after planting, the degree of damage to both the corn stands and the weed plants is assessed from a rating of 0% (no injury) to 100% (complete destruction).

Johnsongrass = experiment: as above; assay type: in vivo; settings: Sorghum halepense, 3-4 weeks after planting; for mortality at 280.212 g/ha: 0.25 lb/A; for mortality at 560.425 g/ha: 0.5 lb/A; for mortality at 1120.85 g/ha: 1.0 lb/A; for mortality at 2241.7 g/ha: 2.0 lb/A
Text: as §8, §9, §10, §11

Velvetleaf = experiment: as above; assay type: in vivo; settings: Abutilon theophrasti, 3-4 weeks after planting; for mortality at 280.212 g/ha: 0.25 lb/A; for mortality at 560.425 g/ha: 0.5 lb/A; for mortality at 1120.85 g/ha: 1.0 lb/A; for mortality at 2241.7 g/ha: 2.0 lb/A
Text: as §8, §9, §10, §11

Goosegrass = experiment: as above; assay type: in vivo, Eleusine indica; settings: 3-4 weeks after planting
Text: as §8, §9, §10, §11

Barnyardgrass = experiment: Example 18 preemergence herbicide test in different soils, % control; assay type: in vivo, barnyard-grass; settings: three weeks
Experimental: (§12) To further illustrate the herbicidal activity of compounds of this invention in different types of soil as would be encountered in different crop growing localities, a preemergence herbicide test is conducted generally as outlined previously herein. Two light sandy soils are employed containing 0.7% and 1.8% organic matter (O.M.), respectively, along with two loam-type, heavier soils containing either 2.0% or 5-5.5% organic matter (O.M.).
(§13) The test plots are all sprayed uniformly with formulations of the test compounds providing 2.0, 1.0, 0.5, and 0.25 pound of active chemical per acre (lb/A).
(§14) Prior to treatment, the soil plots are sown to field corn, soybean, and grain sorghum crops and seeds of barnyard-grass and yellow foxtail.
(§15) Three weeks after planting, the percent control of plant growth is rated from 0% (no injury) to 100% (total destruction).

Yellow Foxtail = experiment: as above; assay type: in vivo; settings: three weeks
Experimental: as §12, §13, §14, §15

[3] = 0.5 lb/A, Heavy Soil 5-5.5% O.M.
[4] = 0.5 lb/A, Medium Soil 2.0% O.M.
[5] = 1.0 lb/A, Heavy Soil 5-5.5% O.M.
[6] = 1.0 lb/A, Medium Soil 2.0% O.M.
[7] = 2.0 lb/A, Heavy Soil 5-5.5% O.M.
[8] = 2.0 lb/A, Medium Soil 2.0% O.M.

## C#CCN(C(=O)CCl)c1c(CC)cccc1CC [Example 9, 2-Chloro-2',6'-diethyl-N-propargylacetanilide]
[1]; 0.062 lb/A
  % Control, Broadleaves: 0%
[1]; 0.125 lb/A
  % Control, Broadleaves: 0%
[1]; 0.25 lb/A
  % Control, Broadleaves: 0%
[1]; 0.5 lb/A
  % Control, Broadleaves: 35%
[1]; 1.0 lb/A
  % Control, Broadleaves: 35%
[2]
  pest or weed control at 69.4927 g/ha: 85%
  pest or weed control at 140.106 g/ha: 95%
  pest or weed control at 280.212 g/ha: 95%
  pest or weed control at 560.425 g/ha: 90%
  pest or weed control at 1120.85 g/ha: 95%
Corn; 1.0 lb/A
  % Crop Kill, Corn: 0%
Corn; 2.0 lb/A
  % Crop Kill, Corn: 3%
Cotton; 1.0 lb/A
  % Crop Kill, Cotton: 0%
Cotton; 2.0 lb/A
  % Crop Kill, Cotton: 3%
Fall Panicum
  mortality at 280.212 g/ha: 73%
  mortality at 560.425 g/ha: 88%
  mortality at 1120.85 g/ha: 95%
  mortality at 2241.7 g/ha: 100%
Johnsongrass
  mortality at 280.212 g/ha: 0%
  mortality at 560.425 g/ha: 37%
  mortality at 1120.85 g/ha: 80%
  mortality at 2241.7 g/ha: 100%
Velvetleaf
  mortality at 280.212 g/ha: 0%
  mortality at 560.425 g/ha: 0%
  mortality at 1120.85 g/ha: 6%
  mortality at 2241.7 g/ha: 18%
Goosegrass; 0.25 lb/A
  % Weed Kill, Goosegrass: 87%
Goosegrass; 0.5 lb/A
  % Weed Kill, Goosegrass: 100%
Goosegrass; 1.0 lb/A
  % Weed Kill, Goosegrass: 100%
Goosegrass; 2.0 lb/A
  % Weed Kill, Goosegrass: 100%
Barnyardgrass; [3]
  % Control, Barnyardgrass: 90%
Barnyardgrass; [4]
  % Control, Barnyardgrass: 95%
Barnyardgrass; 0.5 lb/A, Sand 0.7% O.M.
  % Control, Barnyardgrass: 60%
Barnyardgrass; 0.5 lb/A, Sand 1.8% O.M.
  % Control, Barnyardgrass: 85%
Barnyardgrass; [5]
  % Control, Barnyardgrass: 98%
Barnyardgrass; [6]
  % Control, Barnyardgrass: 100%
Barnyardgrass; 1.0 lb/A, Sand 0.7% O.M.
  % Control, Barnyardgrass: 90%
Barnyardgrass; 1.0 lb/A, Sand 1.8% O.M.
  % Control, Barnyardgrass: 90%
Barnyardgrass; [7]
  % Control, Barnyardgrass: 100%
Barnyardgrass; [8]
  % Control, Barnyardgrass: 100%
Barnyardgrass; 2.0 lb/A, Sand 0.7% O.M.
  % Control, Barnyardgrass: 100%
Barnyardgrass; 2.0 lb/A, Sand 1.8% O.M.
  % Control, Barnyardgrass: 100%
Yellow Foxtail; [3]
  % Control, Yellow Foxtail: 90%
Yellow Foxtail; [4]
  % Control, Yellow Foxtail: 90%
Yellow Foxtail; 0.5 lb/A, Sand 0.7% O.M.
  % Control, Yellow Foxtail: 50%
Yellow Foxtail; 0.5 lb/A, Sand 1.8% O.M.
  % Control, Yellow Foxtail: 85%
Yellow Foxtail; [5]
  % Control, Yellow Foxtail: 100%
Yellow Foxtail; [6]
  % Control, Yellow Foxtail: 100%
Yellow Foxtail; 1.0 lb/A, Sand 0.7% O.M.
  % Control, Yellow Foxtail: 70%
Yellow Foxtail; 1.0 lb/A, Sand 1.8% O.M.
  % Control, Yellow Foxtail: 80%
Yellow Foxtail; [7]
  % Control, Yellow Foxtail: 100%
Yellow Foxtail; [8]
  % Control, Yellow Foxtail: 100%
Yellow Foxtail; 2.0 lb/A, Sand 0.7% O.M.
  % Control, Yellow Foxtail: 100%
Yellow Foxtail; 2.0 lb/A, Sand 1.8% O.M.
  % Control, Yellow Foxtail: 100%

## C#CCN(C(=O)CCl)c1c(C)cccc1CC [Example 15, 2-Chloro-2'-methyl-6'-ethyl-N-propargylacetanilide]
[1]; 0.5 lb/A
  % Control, Broadleaves: 0%
[1]; 1.0 lb/A
  % Control, Broadleaves: 35%
[2]
  pest or weed control at 69.4927 g/ha: 0%
  pest or weed control at 140.106 g/ha: 70%
  pest or weed control at 280.212 g/ha: 85%
  pest or weed control at 560.425 g/ha: 98%
  pest or weed control at 1120.85 g/ha: 99%
Corn; 0.5 lb/A
  % Crop Kill, Corn: 0%
Corn; 1.0 lb/A
  % Crop Kill, Corn: 3%
Corn; 2.0 lb/A
  % Crop Kill, Corn: 12%
Cotton; 0.5 lb/A
  % Crop Kill, Cotton: 0%
Cotton; 1.0 lb/A
  % Crop Kill, Cotton: 6%
Cotton; 2.0 lb/A
  % Crop Kill, Cotton: 13%
Fall Panicum
  mortality at 280.212 g/ha: 78%
  mortality at 560.425 g/ha: 96%
  mortality at 1120.85 g/ha: 97%
  mortality at 2241.7 g/ha: 100%
Johnsongrass
  mortality at 280.212 g/ha: 0%
  mortality at 560.425 g/ha: 73%
  mortality at 1120.85 g/ha: 100%
  mortality at 2241.7 g/ha: 100%
Velvetleaf
  mortality at 280.212 g/ha: 0%
  mortality at 560.425 g/ha: 27%
  mortality at 1120.85 g/ha: 37%
  mortality at 2241.7 g/ha: 80%
Goosegrass; 0.25 lb/A
  % Weed Kill, Goosegrass: 82%
Goosegrass; 0.5 lb/A
  % Weed Kill, Goosegrass: 100%
Goosegrass; 1.0 lb/A
  % Weed Kill, Goosegrass: 100%
Goosegrass; 2.0 lb/A
  % Weed Kill, Goosegrass: 100%
Barnyardgrass; [3]
  % Control, Barnyardgrass: 98%
Barnyardgrass; [4]
  % Control, Barnyardgrass: 100%
Barnyardgrass; 0.5 lb/A, Sand 0.7% O.M.
  % Control, Barnyardgrass: 75%
Barnyardgrass; 0.5 lb/A, Sand 1.8% O.M.
  % Control, Barnyardgrass: 50%
Barnyardgrass; [5]
  % Control, Barnyardgrass: 100%
Barnyardgrass; [6]
  % Control, Barnyardgrass: 100%
Barnyardgrass; 1.0 lb/A, Sand 0.7% O.M.
  % Control, Barnyardgrass: 99%
Barnyardgrass; 1.0 lb/A, Sand 1.8% O.M.
  % Control, Barnyardgrass: 90%
Barnyardgrass; [7]
  % Control, Barnyardgrass: 100%
Barnyardgrass; [8]
  % Control, Barnyardgrass: 100%
Barnyardgrass; 2.0 lb/A, Sand 0.7% O.M.
  % Control, Barnyardgrass: 99%
Barnyardgrass; 2.0 lb/A, Sand 1.8% O.M.
  % Control, Barnyardgrass: 99%
Yellow Foxtail; [3]
  % Control, Yellow Foxtail: 98%
Yellow Foxtail; [4]
  % Control, Yellow Foxtail: 100%
Yellow Foxtail; 0.5 lb/A, Sand 0.7% O.M.
  % Control, Yellow Foxtail: 45%
Yellow Foxtail; 0.5 lb/A, Sand 1.8% O.M.
  % Control, Yellow Foxtail: 30%
Yellow Foxtail; [5]
  % Control, Yellow Foxtail: 100%
Yellow Foxtail; [6]
  % Control, Yellow Foxtail: 100%
Yellow Foxtail; 1.0 lb/A, Sand 0.7% O.M.
  % Control, Yellow Foxtail: 65%
Yellow Foxtail; 1.0 lb/A, Sand 1.8% O.M.
  % Control, Yellow Foxtail: 65%
Yellow Foxtail; [7]
  % Control, Yellow Foxtail: 100%
Yellow Foxtail; [8]
  % Control, Yellow Foxtail: 100%
Yellow Foxtail; 2.0 lb/A, Sand 0.7% O.M.
  % Control, Yellow Foxtail: 90%
Yellow Foxtail; 2.0 lb/A, Sand 1.8% O.M.
  % Control, Yellow Foxtail: 85%
